# In ChEMBL document CHEMBL1773004, “1-[(1-methyl-1H-imidazol-2-yl)methyl]-4-phenylpiperidines as mGluR2 positive allosteric modulators for the treatment of psychosis” (J Med Chem, 2011):
# Active and inactive are the calls of the source. No cut-off for these calls is given here.
# What was measured:
# [1] = target: D(2) dopamine receptor (Rattus norvegicus, UniProt P61169); assay: Displacement of [3H]spiperone from dopamine D2 receptor in rat corpus striatum by beta plate scintillation counting; assay type: tissue-based
# [2] = target: Metabotropic glutamate receptor 2 (Rattus norvegicus, UniProt P31421); assay: Positive allosteric modulation of rat mGluR2 expressed in HEK293 cells co-expressing Galpha15 G protein assessed as increase in glutamate-induced intracellular calcium release by FLIPR assay; assay type: functional, cell-based
# [3] = tested on: HEK293; assay: Selectivity ratio of Ki for dopamine D2 receptor in rat corpus striatum to EC50 for rat mGluR2 expressed in HEK293 cells; assay type: cell-based
# [4] = Cmax in rat brain at 10 mg/kg, po; assay type: ADME, organism-based; design: dose 10 mg/kg, route oral
# [5] = Oral bioavailability in rat at 10 mg/kg; assay type: ADME, organism-based; settings: in vivo
# [6] = Plasma clearance in rat at 1 mg/kg, iv; assay type: ADME, organism-based; design: dose 1 mg/kg, route intravenous
# [7] = Ratio of drug level in brain to plasma in rat at 3.2 mg/kg, sc after 60 mins; assay type: ADME, organism-based; design: dose 3.2 mg/kg, route subcutaneous
# [8] = target: Metabotropic glutamate receptor 2 (Homo sapiens, UniProt Q14416); assay: Positive allosteric modulation of human mGluR2 expressed in HEK293 cells co-expressing Galpha15 G protein assessed as increase in glutamate-induced intracellular calcium release by FLIPR assay; assay type: functional, cell-based
# [9] = Permeability from apical to basolateral side of MDR1 transfected MDCK cells at 1 uM; assay type: ADME, cell-based, Canis lupus familiaris; settings: dog, read-out: permeability
# [10] = tested on: MDCK; assay: Efflux ratio of permeability from […] of MDR1 transfected MDCK cells at 1 uM; assay type: ADME, cell-based, Canis lupus familiaris; settings: dog
# [11] = tested on: Brain; assay: Fraction unbound in rat brain by LC-MS/MS assay; assay type: ADME, tissue-based
# [12] = Ratio of drug level in brain to plasma in mouse at 10 mg/kg, sc after 60 mins; assay type: ADME, organism-based; design: dose 10 mg/kg, route subcutaneous
# [13] = target: Metabotropic glutamate receptor 1 (Homo sapiens) (UniProt Q13255); assay: Agonist activity at mGlu1 receptor at up to 10 uM; assay type: functional
# [14] = target: Metabotropic glutamate receptor 1 (Homo sapiens) (UniProt Q13255); assay: Antagonist activity at mGlu1 receptor at up to 10 uM; assay type: functional
# [15] = target: Metabotropic glutamate receptor 5 (Homo sapiens) (UniProt P41594); assay: Agonist activity at mGlu5 receptor at up to 10 uM; assay type: functional
# [16] = target: Metabotropic glutamate receptor 5 (Homo sapiens) (UniProt P41594); assay: Antagonist activity at mGlu5 receptor at up to 10 uM; assay type: functional
# [17] = target: Metabotropic glutamate receptor 5 (Homo sapiens) (UniProt P41594); assay: Positive allosteric modulation of mGlu5 receptor at up to 10 uM
# [18] = Cmax in rat brain at 5 mg/kg, po; assay type: ADME, organism-based; design: dose 5 mg/kg, route oral
# Chain of Metabotropic glutamate receptor 5 (Homo sapiens) (P41594 21-1212 limits assumed): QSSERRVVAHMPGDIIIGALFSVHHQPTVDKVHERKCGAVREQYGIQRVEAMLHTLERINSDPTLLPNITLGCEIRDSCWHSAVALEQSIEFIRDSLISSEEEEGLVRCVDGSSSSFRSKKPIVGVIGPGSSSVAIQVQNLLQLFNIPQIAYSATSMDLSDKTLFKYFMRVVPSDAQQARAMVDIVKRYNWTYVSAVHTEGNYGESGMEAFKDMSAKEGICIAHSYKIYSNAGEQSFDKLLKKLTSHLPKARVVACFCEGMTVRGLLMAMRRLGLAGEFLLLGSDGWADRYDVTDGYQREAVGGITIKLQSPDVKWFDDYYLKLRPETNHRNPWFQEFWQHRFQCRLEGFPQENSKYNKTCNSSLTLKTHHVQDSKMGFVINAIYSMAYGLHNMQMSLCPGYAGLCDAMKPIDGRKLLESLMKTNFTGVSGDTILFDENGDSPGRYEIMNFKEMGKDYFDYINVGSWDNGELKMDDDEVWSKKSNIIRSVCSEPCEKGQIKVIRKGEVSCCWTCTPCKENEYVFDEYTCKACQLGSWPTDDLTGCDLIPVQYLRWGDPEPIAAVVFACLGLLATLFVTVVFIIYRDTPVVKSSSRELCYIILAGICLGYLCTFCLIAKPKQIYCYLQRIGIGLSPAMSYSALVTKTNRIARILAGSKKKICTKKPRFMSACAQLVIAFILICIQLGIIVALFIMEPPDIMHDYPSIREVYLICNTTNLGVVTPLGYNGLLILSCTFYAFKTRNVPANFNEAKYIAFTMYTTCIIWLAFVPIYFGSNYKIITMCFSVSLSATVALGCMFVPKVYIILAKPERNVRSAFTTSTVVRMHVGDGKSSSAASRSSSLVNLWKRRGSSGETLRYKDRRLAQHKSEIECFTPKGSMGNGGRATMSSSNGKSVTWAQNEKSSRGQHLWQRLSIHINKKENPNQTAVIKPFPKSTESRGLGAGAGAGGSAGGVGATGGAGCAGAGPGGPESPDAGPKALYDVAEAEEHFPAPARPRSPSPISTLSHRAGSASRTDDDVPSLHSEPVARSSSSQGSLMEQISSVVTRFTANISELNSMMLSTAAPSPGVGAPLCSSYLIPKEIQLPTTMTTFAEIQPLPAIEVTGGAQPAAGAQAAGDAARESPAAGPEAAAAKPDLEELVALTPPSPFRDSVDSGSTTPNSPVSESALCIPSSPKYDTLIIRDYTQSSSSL
# Chain of Metabotropic glutamate receptor 2 (Rattus norvegicus, UniProt P31421) (P31421 whole entry): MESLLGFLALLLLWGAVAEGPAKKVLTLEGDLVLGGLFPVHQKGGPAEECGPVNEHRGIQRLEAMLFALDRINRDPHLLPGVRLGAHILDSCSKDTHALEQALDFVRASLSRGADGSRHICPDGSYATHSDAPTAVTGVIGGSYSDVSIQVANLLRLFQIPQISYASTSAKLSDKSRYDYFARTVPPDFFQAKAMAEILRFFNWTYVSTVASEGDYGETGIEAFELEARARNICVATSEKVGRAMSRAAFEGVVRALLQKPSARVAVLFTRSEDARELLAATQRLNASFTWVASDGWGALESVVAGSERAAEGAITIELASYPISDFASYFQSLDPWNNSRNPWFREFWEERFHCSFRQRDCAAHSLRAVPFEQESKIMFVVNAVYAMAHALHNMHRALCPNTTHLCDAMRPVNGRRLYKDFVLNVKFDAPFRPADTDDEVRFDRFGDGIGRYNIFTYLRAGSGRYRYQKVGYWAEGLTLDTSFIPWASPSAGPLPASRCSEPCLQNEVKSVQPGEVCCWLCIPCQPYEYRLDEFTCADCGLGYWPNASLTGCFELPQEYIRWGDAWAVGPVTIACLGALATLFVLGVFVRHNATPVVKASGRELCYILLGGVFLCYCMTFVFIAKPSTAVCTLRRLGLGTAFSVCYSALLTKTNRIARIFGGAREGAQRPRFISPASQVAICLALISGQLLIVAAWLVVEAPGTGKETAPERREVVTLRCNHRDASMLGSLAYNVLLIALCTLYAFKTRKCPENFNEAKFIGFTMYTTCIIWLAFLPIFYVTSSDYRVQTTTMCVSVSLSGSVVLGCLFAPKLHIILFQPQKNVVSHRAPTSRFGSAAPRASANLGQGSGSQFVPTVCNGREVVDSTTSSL
# Chain of D(2) dopamine receptor (P61169 whole entry): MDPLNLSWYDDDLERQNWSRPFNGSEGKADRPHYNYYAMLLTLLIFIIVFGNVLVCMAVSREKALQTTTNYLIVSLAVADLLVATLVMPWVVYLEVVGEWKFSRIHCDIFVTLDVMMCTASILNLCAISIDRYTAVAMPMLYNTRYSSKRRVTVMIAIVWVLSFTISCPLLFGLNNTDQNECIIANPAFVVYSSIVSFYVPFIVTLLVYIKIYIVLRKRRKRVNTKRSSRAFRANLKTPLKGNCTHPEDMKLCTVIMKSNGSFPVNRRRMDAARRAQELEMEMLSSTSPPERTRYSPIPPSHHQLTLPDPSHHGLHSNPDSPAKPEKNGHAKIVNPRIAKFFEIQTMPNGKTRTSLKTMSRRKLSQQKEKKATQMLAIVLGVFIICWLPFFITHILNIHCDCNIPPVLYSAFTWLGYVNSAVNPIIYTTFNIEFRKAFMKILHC
# Chain of Metabotropic glutamate receptor 2 (Homo sapiens, UniProt Q14416) (Q14416 whole entry): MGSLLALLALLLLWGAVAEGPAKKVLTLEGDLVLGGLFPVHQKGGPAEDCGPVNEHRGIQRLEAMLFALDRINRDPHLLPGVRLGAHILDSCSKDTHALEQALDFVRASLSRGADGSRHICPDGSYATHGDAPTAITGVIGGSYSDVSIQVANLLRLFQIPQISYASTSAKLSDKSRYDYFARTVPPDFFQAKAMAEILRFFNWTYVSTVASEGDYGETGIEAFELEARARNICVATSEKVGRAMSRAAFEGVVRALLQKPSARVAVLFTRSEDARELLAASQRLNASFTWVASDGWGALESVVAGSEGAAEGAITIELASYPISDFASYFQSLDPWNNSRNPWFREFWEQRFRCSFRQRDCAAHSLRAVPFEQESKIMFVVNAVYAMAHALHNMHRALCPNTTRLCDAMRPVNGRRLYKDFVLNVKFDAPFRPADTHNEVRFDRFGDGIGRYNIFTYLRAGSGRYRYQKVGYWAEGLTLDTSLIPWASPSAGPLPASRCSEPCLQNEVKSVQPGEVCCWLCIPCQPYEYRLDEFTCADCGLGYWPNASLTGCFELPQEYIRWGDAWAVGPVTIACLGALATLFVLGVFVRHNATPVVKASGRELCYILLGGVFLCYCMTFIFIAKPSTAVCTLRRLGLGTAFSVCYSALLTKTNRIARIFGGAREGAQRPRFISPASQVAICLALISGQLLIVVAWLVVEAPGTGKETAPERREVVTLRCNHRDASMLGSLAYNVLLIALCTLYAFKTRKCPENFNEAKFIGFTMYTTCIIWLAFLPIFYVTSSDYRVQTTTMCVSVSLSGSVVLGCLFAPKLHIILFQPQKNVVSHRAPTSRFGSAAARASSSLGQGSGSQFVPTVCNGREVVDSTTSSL
# Chain of Metabotropic glutamate receptor 1 (Homo sapiens) (Q13255 19-1194 limits assumed): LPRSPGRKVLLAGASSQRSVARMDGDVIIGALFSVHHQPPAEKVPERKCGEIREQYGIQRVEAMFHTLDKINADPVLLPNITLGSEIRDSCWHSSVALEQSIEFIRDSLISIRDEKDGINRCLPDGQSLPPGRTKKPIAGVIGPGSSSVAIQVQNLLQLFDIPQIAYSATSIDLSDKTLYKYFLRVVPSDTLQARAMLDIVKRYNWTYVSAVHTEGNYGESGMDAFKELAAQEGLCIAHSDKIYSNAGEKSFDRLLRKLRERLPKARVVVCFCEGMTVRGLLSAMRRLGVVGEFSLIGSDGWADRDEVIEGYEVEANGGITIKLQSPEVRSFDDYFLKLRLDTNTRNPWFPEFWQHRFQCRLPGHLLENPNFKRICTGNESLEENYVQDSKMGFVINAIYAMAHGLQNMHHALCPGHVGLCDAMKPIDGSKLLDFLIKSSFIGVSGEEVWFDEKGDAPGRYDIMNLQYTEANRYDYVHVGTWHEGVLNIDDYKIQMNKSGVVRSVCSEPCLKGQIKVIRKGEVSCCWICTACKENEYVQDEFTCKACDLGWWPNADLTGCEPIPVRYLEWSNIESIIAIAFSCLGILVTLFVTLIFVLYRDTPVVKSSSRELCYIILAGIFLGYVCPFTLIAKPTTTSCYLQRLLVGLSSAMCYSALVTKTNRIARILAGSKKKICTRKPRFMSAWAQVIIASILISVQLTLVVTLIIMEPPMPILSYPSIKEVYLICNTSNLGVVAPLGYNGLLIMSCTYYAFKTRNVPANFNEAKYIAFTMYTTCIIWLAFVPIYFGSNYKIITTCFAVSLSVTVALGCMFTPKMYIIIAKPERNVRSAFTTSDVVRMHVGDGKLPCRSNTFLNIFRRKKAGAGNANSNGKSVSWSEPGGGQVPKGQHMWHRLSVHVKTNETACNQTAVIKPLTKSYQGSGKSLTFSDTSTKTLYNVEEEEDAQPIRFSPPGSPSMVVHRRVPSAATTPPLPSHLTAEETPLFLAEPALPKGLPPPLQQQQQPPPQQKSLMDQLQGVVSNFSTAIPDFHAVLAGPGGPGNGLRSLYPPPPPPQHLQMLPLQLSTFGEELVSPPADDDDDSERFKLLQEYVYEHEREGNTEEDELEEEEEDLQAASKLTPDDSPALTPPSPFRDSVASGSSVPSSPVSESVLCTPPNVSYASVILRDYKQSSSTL
smiles,measurement,setting,value
Cn1c(CN2[C@@H]3CC[C@H]2CC(c2ccc(C(F)(F)F)cc2)C3)nc2ncccc21 (some centres not stated),Ki,[1],355 nM
same,EC50,[2],184 nM
C[C@@H]1CN(Cc2nc3ncccc3n2C)CC[C@@H]1c1ccc(C(F)(F)F)cc1,Ki,[1],> 2800 nM
same,EC50,[2],> 1990 nM
Cn1c(CN2CCC(c3ccc(C(F)(F)F)cc3)CC2)nc2ncccc21,Ratio,[3],8
same,Cmax,[4],5.21 µM
same,bioavailability,[5],100%
same,clearance,[6],5.4 mL/min/kg
same,Kp at 1 h,[7],5
same,EC50,[8],43 nM
same,Ki,[1],404 nM
same,Papp A→B at 1 µM,[9],30 ×10⁻⁶ cm/s
same,Ratio,[10],1.4
same,EC50,[2],48 nM
C[C@@H]1CN(Cc2nc3ncccc3n2C)CC[C@@H]1c1ccc(Cl)cc1F,EC50,[2],> 1810 nM
COc1ccccc1N1CCN(Cc2c(Br)c(=O)n(-c3ccccc3)n2C)CC1,EC50,[2],891 nM
Cn1c(CN2CCC(c3cccc(F)c3)CC2)nc2ccccc21,EC50,[2],3310 nM
Cn1c(CN2CCC(c3ccccc3F)CC2)nc2ccccc21,EC50,[2],22 nM
Cn1c(CN2CCC(c3ccc(C(F)(F)F)cc3)CC2)nc2ccncc21,EC50,[2],196 nM
Cn1c(CN2CCC(c3ccc(C(F)(F)F)cc3)CC2)nc2ccccc21,Ki,[1],561 nM
same,EC50,[2],78 nM
COc1cc(C(F)(F)F)ccc1[C@H]1CCN(Cc2nc3ncccc3n2C)C[C@H]1C,EC50,[2],787 nM
Cn1c(CN2CCC(c3ccc(C(F)(F)F)cc3F)CC2)nc2ncccc21,Ki,[1],1780 nM
same,EC50,[2],25.1 nM
Cc1cc(C2CCN(Cc3nc4ccccc4n3C)CC2)nc(N2CCCC2)n1,EC50,[2],4790 nM
Cn1c(CN2CCC(c3ccc(F)cc3)CC2)nc2ccccc21,Ki,[1],24 nM
same,EC50,[2],159 nM
C[C@H]1CN(Cc2nc3ncccc3n2C)CC[C@H]1c1ccc(C(F)(F)F)cc1F,Ratio,[3],> 584
same,Cmax,[4],3.12 µM
same,bioavailability,[5],74%
same,clearance,[6],7.5 mL/min/kg
same,Fu,[11],0.5%
same,Kp at 1 h,[7],7
same,Kp at 1 h,[12],1.9
same,EC50,[8],3 nM
same,Ki,[1],> 5260 nM
same,Papp A→B at 1 µM,[9],26 ×10⁻⁶ cm/s
same,Ratio,[10],1.7
same,EC50,[2],9 nM
same,Activity,[13],inactive
same,Activity,[14],inactive
same,Activity,[15],inactive
same,Activity,[16],inactive
same,Activity,[17],inactive
C[C@@H]1C[C@H](c2ccc(C(F)(F)F)cc2)CCN1Cc1nc2ncccc2n1C,Ki,[1],589 nM
same,EC50,[2],454 nM
Cn1c(CN2CCC(c3ccccc3Cl)CC2)nc2ccccc21,EC50,[2],144 nM
COc1cc(C(F)(F)F)ccc1[C@@H]1CCN(Cc2nc3ncccc3n2C)C[C@@H]1C,Ratio,[3],> 239
same,Cmax,[18],1580 nM
same,Fu,[11],0.6%
same,Kp at 1 h,[7],8
same,Kp at 1 h,[12],1.7
same,EC50,[8],76 nM
same,Ki,[1],> 5260 nM
same,Papp A→B at 1 µM,[9],19 ×10⁻⁶ cm/s
same,Ratio,[10],1.5
same,EC50,[2],22 nM
same,Activity,[13],inactive
same,Activity,[14],inactive
same,Activity,[15],inactive
same,Activity,[16],inactive
same,Activity,[17],inactive
